Read-outs that look alike come from different tables or passages of the source.
Test system: iCell cardiomyocytes (human iPSC-derived cardiomyocytes)
Assay: High-content imaging of cytotoxicity and mitochondrial integrity in iPSC-CMs
Assay type: cell-based
Details: Homo sapiens; for viability at 0.01 µM / activity at 0.01 µM / viability at 0.1 µM / activity at 0.1 µM / viability at 1 µM / activity at 1 µM / viability at 10 µM / activity at 10 µM / viability at 100 µM / activity at 100 µM: 0.00 µM = 100.00; for viability at 0.1 µM / activity at 0.1 µM: 0.10 µM
Method in brief: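 This assay measured cytotoxicity and mitochondrial integrity in iPSC cardiomyocytes held in 40μL maintenance medium. After compound exposure, a 2× staining solution with Hoechst 33342 (4μg/mL) and MitoTracker™ Orange (0.4μM) was applied for 15 min at 37°C. Cells were washed, fixed with 3.7% formaldehyde, imaged on DAPI and Cy3 channels, and scored in MetaXpress®.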

[1] = Cardiomyocyte, 1.5 h, read-out: cm.cam.90min
[2] = Cardiomyocyte, 1.5 h, read-out: cm.mii.90min
[3] = Cardiomyocyte, 1.5 h, read-out: cm.mito.90min
[4] = Cardiomyocyte, 1.5 h, read-out: cm.tc.90min
[5] = Cardiomyocyte, 24 h, read-out: cm.cam.24hrs
[6] = Cardiomyocyte, 24 h, read-out: cm.mii.24hrs
[7] = Cardiomyocyte, 24 h, read-out: cm.mito.24hrs
[8] = Cardiomyocyte, 24 h, read-out: cm.tc.24hrs

Oc1cc(Cl)cc(-c2cccc(Cl)c2)c1 [5-OH PCB 11]
viability at 0.01 µM [1]: 91%
activity at 0.01 µM [2]: 117%
activity at 0.01 µM [3]: 90.7%
viability at 0.01 µM [4]: 91.1%
viability at 0.1 µM [1]: 96.6%
activity at 0.1 µM [2]: 96.6%
activity at 0.1 µM [3]: 96.4%
viability at 0.1 µM [4]: 96.5%
viability at 1 µM [1]: 99%
activity at 1 µM [2]: 90.6%
activity at 1 µM [3]: 99%
viability at 1 µM [4]: 99%
viability at 10 µM [1]: 98.4%
activity at 10 µM [2]: 108%
activity at 10 µM [3]: 98%
viability at 10 µM [4]: 98%
viability at 100 µM [1]: 0%
activity at 100 µM [2]: 69.7%
activity at 100 µM [3]: 0.0231%
viability at 100 µM [4]: 0.0231%
viability at 0.01 µM [5]: 99%
activity at 0.01 µM [6]: 95.3%
activity at 0.01 µM [7]: 97%
viability at 0.01 µM [8]: 99.8%
viability at 0.1 µM [5]: 101%
activity at 0.1 µM [6]: 93.9%
activity at 0.1 µM [7]: 100%
viability at 0.1 µM [8]: 101%
viability at 1 µM [5]: 99.8%
activity at 1 µM [6]: 100%
activity at 1 µM [7]: 97.8%
viability at 1 µM [8]: 99.8%
viability at 10 µM [5]: 98.2%
activity at 10 µM [6]: 81.6%
activity at 10 µM [7]: 98.7%
viability at 10 µM [8]: 97.8%
viability at 100 µM [5]: 0.0236%
activity at 100 µM [6]: 0%
activity at 100 µM [7]: 0%
viability at 100 µM [8]: 0.0229%
minimal effective concentration (iPSC-CM, 1.5 h, iPSC-CM, read-out: cm.cam.90min POD): 16.2 µM
minimal effective concentration (iPSC-CM, 1.5 h, iPSC-CM, read-out: cm.mii.90min POD): 34.1 µM
minimal effective concentration (iPSC-CM, 1.5 h, iPSC-CM, read-out: cm.mito.90min POD): 13.8 µM
minimal effective concentration (iPSC-CM, 1.5 h, iPSC-CM, read-out: cm.tc.90min POD): 14 µM
minimal effective concentration (iPSC-CM, 24 h, iPSC-CM, read-out: cm.cam.24hrs POD): 13.8 µM
minimal effective concentration (iPSC-CM, 24 h, iPSC-CM, read-out: cm.mii.24hrs POD): 8.43 µM
minimal effective concentration (iPSC-CM, 24 h, iPSC-CM, read-out: cm.mito.24hrs POD): 14.6 µM
minimal effective concentration (iPSC-CM, 24 h, iPSC-CM, read-out: cm.tc.24hrs POD): 10.7 µM

Oc1cc(Cl)cc(-c2cccc(Cl)c2)c1 [5-OH-PCB 11]
minimal effective concentration (Cardiomyocyte, 1.5 h, cardiomyocytes (cm), cam, 90 min, read-out: POD cm.cam.90min): 16.2 µM
minimal effective concentration (Cardiomyocyte, 1.5 h, cardiomyocytes (cm), mii, 90 min, read-out: POD cm.mii.90min): 34.1 µM
minimal effective concentration (Cardiomyocyte, 1.5 h, cardiomyocytes (cm), mito, 90 min, read-out: POD cm.mito.90min): 13.8 µM
minimal effective concentration (Cardiomyocyte, 1.5 h, cardiomyocytes (cm), tc, 90 min, read-out: POD cm.tc.90min): 14 µM
minimal effective concentration (Cardiomyocyte, 24 h, cardiomyocytes (cm), cam, 24 hrs, read-out: POD cm.cam.24hrs): 13.8 µM
minimal effective concentration (Cardiomyocyte, 24 h, cardiomyocytes (cm), mii, 24 hrs, read-out: POD cm.mii.24hrs): 8.43 µM
minimal effective concentration (Cardiomyocyte, 24 h, cardiomyocytes (cm), mito, 24 hrs, read-out: POD cm.mito.24hrs): 14.6 µM
minimal effective concentration (Cardiomyocyte, 24 h, cardiomyocytes (cm), tc, 24 hrs, read-out: POD cm.tc.24hrs): 10.7 µM
